Laboratory results as given in patent publication US10894784B2, “Heteroarylbenzimidazole compounds” (BAYER PHARMA AKTIENGESELLSCHAFT, priority 2015, dated 2021).

Target: TBK1 (Homo sapiens (Human), UniProt Q9UHD2)
Assay: TBK1 low ATP kinase assay (in vitro assay 1)
Format: biochemical
Conditions: in vitro assay 1, read-out: TBK1 low ATP kinase assay IC50

TBK1, sequence (Q9UHD2 whole entry): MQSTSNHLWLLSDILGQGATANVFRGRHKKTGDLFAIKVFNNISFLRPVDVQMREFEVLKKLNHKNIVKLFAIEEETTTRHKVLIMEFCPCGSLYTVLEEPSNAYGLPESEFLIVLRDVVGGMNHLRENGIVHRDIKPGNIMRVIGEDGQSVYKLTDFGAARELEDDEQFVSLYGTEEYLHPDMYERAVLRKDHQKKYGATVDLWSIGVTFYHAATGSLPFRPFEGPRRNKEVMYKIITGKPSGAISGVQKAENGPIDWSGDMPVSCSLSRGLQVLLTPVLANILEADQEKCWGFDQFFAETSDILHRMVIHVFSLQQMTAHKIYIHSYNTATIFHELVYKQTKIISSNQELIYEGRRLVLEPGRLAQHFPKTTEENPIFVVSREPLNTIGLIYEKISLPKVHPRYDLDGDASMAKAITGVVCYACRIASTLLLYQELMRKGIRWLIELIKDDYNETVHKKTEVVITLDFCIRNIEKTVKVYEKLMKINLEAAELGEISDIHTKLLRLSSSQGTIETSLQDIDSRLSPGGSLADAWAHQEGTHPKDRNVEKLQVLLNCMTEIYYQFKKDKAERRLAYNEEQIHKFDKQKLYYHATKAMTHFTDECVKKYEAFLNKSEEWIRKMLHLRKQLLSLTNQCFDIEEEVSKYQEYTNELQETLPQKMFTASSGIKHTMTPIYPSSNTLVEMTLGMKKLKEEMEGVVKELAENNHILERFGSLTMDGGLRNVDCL

Row | Compound | IC50 [µM]
1 | CCOc1ncnc(-c2ccc3nc(Nc4cc(CN5CCN(C(=O)CC(F)(F)F)CC5)ccn4)[nH]c3c2)c1OC [Example 167.02, 1-{4-[(2-{[6-(6-ethoxy-5-methoxypyrimidin-4-yl)-1H-benzimidazol-2-yl]amino}pyridin-4-yl)methyl]piperazin-1-yl}-3,3,3-trifluoropropan-1-one] | 0.035
2 | CCOc1nccc(-c2ccc3nc(Nc4cc(C(C)N5CCN(C(=O)CC(F)(F)F)CC5)ccn4)[nH]c3c2)n1 (racemic) [Example 26.02.01, (rac)-1-{4-[1-(2-{[6-(2-ethoxypyrimidin-4-yl)-1H-benzimidazol-2-yl]amino}pyridin-4-yl)ethyl]piperazin-1-yl}-3,3,3-trifluoropropan-1-one] | 0.00468
3 | CC(c1ccnc(Nc2nc3ccc(-c4cnn(CC5CC5(F)F)c4)cc3[nH]2)c1)N1CCN(C(=O)C2CC2)CC1 (single isomer, unassigned) [Example 55.03, cyclopropyl{4-[(1R or 1S)-1-(2-{[6-(1-{[(1RS)-2,2-difluorocyclopropyl]methyl}-1H-pyrazol-4-yl)-1H-benzimidazol-2-yl]amino}pyridin-4-yl)ethyl]piperazin-1-yl}methanone] | 0.000564
4 | COc1c(NC2CCC2)ncnc1-c1ccc2nc(Nc3cc(C(C)N4CCN(C(=O)CC(F)(F)F)CC4)ccn3)[nH]c2c1 (single isomer, unassigned) [Example 114.02, 1-(4-{(1R or 1S)-1-[2-({6-[6-(cyclobutylamino)-5-methoxypyrimidin-4-yl]-1H-benzimidazol-2-yl}amino)pyridin-4-yl]ethyl}piperazin-1-yl)-3,3,3-trifluoropropan-1-one] | 0.00827
5 | Cc1noc(-c2ccc3nc(Nc4cc(CN5CCN(C(=O)CC(F)(F)F)CC5(C)C)ccn4)[nH]c3c2)n1 [Example 16.04.02, 1-{3,3-dimethyl-4-[(2-{[6-(3-methyl-1,2,4-oxadiazol-5-yl)-1H-benzimidazol-2-yl]amino}pyridin-4-yl)methyl]piperazin-1-yl}-3,3,3-trifluoropropan-1-one] | 0.496
6 | O=C(C1CC1)N1CCN(Cc2ccnc(Nc3nc4ccc(-c5nc(Cc6ccccc6)no5)cc4[nH]3)c2)CC1 [Example 21.01, {4-[(2-{[6-(3-benzyl-1,2,4-oxadiazol-5-yl)-1H-benzimidazol-2-yl]amino}pyridin-4-yl)methyl]piperazin-1-yl}(cyclopropyl)methanone] | 0.193
7 | O=C(C1CC1)N1CCN(Cc2ccnc(Nc3nc4ccc(-c5cnc(Cl)cn5)cc4[nH]3)c2)CC1 [Example 140.03, {4-[(2-{[6-(5-chloropyrazin-2-yl)-1H-benzimidazol-2-yl]amino}pyridin-4-yl)methyl]piperazin-1-yl}(cyclopropyl)methanone] | 0.29
8 | COCc1cc(-c2ccc3nc(Nc4cc(CN5CCN(C(=O)C6CC6)CC5)ccn4)[nH]c3c2)ncn1 [Example 79.02, cyclopropyl(4-{[2-({6-[6-(methoxymethyl)pyrimidin-4-yl]-1H-benzimidazol-2-yl}amino)pyridin-4-yl]methyl}piperazin-1-yl)methanone] | 0.0048
9 | COc1cncnc1-c1ccc2nc(Nc3cc(C(C)N4CCN(C(=O)C5CCC5)CC4)ccn3)[nH]c2c1 (racemic) [Example 35.02.04, (rac)-cyclobutyl{4-[1-(2-{[6-(5-methoxypyrimidin-4-yl)-1H-benzimidazol-2-yl]amino}pyridin-4-yl)ethyl]piperazin-1-yl}methanone] | 0.0104
10 | O=C(C1CC1)N1CCN(Cc2ccnc(Nc3nc4ccc(-c5ccncn5)cc4[nH]3)c2)CC1 [Example 23.01.02, cyclopropyl{4-[(2-{[6-(pyrimidin-4-yl)-1H-benzimidazol-2-yl]amino}pyridin-4-yl)methyl]piperazin-1-yl}methanone] | 0.0221
11 | COc1cc(-c2ccc3nc(Nc4cc(CN5CCN(C(=O)C6CC6)CC5)ccn4)[nH]c3c2)ccn1 [Example 02.02, cyclopropyl{4-[(2-{[6-(2-methoxypyridin-4-yl)-1H-benzimidazol-2-yl]amino}pyridin-4-yl)methyl]piperazin-1-yl}methanone] | 0.0307
12 | COc1cncnc1-c1ccc2nc(Nc3cc(CN4CCN(S(=O)(=O)N5CCC(OC)CC5)CC4)ccn3)[nH]c2c1 [Example 35.01.17, N-[4-({4-[(4-methoxypiperidin-1-yl)sulfonyl]piperazin-1-yl}methyl)pyridin-2-yl]-6-(5-methoxypyrimidin-4-yl)-1H-benzimidazol-2-amine] | 0.0392
13 | COc1c(-c2ccc3nc(Nc4cc(C(C)N5CCN(C(=O)CC(F)(F)F)CC5)ccn4)[nH]c3c2)ncnc1N1CCC1 (single isomer, unassigned) [Example 111.03, 1-(4-{(1R or 1S)-1-[2-({6-[6-(azetidin-1-yl)-5-methoxypyrimidin-4-yl]-1H-benzimidazol-2-yl}amino)pyridin-4-yl]ethyl}piperazin-1-yl)-3,3,3-trifluoropropan-1-one] | 0.0014
14 | O=C(CC(F)(F)F)N1CCN(Cc2ccnc(Nc3nc4ccc(-c5cc(OCC6CCC6)ncn5)cc4[nH]3)c2)CC1 [Example 159.02, 1-(4-{[2-({6-[6-(cyclobutylmethoxy)pyrimidin-4-yl]-1H-benzimidazol-2-yl}amino)pyridin-4-yl]methyl}piperazin-1-yl)-3,3,3-trifluoropropan-1-one] | 0.015
15 | Cc1cc(-c2ccc3nc(Nc4cc(CN5CCN(C(=O)C6CC6)CC5)ccn4)[nH]c3c2)c(F)cn1 [Example 131.03, cyclopropyl{4-[(2-{[6-(5-fluoro-2-methylpyridin-4-yl)-1H-benzimidazol-2-yl]amino}pyridin-4-yl)methyl]piperazin-1-yl}methanone] | 0.032
16 | COc1cc(-c2ccc3nc(Nc4cc(CN5CCN(C(=O)C6CC6)CC5)ccn4)[nH]c3c2OCC(C)C)ccn1 [Example 49.01, cyclopropyl{4-[(2-{[6-(2-methoxypyridin-4-yl)-7-(2-methylpropoxy)-1H-benzimidazol-2-yl]amino}pyridin-4-yl)methyl]piperazin-1-yl}methanone] | 0.217
17 | CC(C)Nc1ncnc(-c2ccc3nc(Nc4cc(CN5CCN(C(=O)CC(F)(F)F)CC5)ccn4)[nH]c3c2)c1F [Example 193.02, 3,3,3-trifluoro-1-(4-{[2-({6-[5-fluoro-6-(propan-2-ylamino)pyrimidin-4-yl]-1H-benzimidazol-2-yl}amino)pyridin-4-yl]methyl}piperazin-1-yl)propan-1-one] | 0.0346
18 | Cc1cc(-c2ccc3nc(Nc4cc(C(C)N5CCN(C(=O)C6CCC6)CC5)ccn4)[nH]c3c2)ncn1 (single isomer, unassigned) [Example 30.03.02.B, cyclobutyl{4-[(1S or 1R)-1-(2-{[6-(6-methylpyrimidin-4-yl)-1H-benzimidazol-2-yl]amino}pyridin-4-yl)ethyl]piperazin-1-yl}methanone] | 0.0275
19 | O=C(CC(F)(F)F)N1CCN(Cc2ccnc(Nc3nc4ccc(-c5ncccn5)cc4[nH]3)c2)CC1 [Example 180.02, 3,3,3-trifluoro-1-{4-[(2-{[6-(pyrimidin-2-yl)-1H-benzimidazol-2-yl]amino}pyridin-4-yl)methyl]piperazin-1-yl}propan-1-one] | 0.556
20 | Cc1nccc(-c2ccc3nc(Nc4cc(C(C)N5CCN(C(=O)CC6CC6)CC5)ccn4)[nH]c3c2)n1 (racemic) [Example 24.04.04, (rac)-2-cyclopropyl-1-{4-[1-(2-{[6-(2-methylpyrimidin-4-yl)-1H-benzimidazol-2-yl]amino}pyridin-4-yl)ethyl]piperazin-1-yl}ethanone] | 0.0144
